Patent US6821983B2, “5-(9-acridinylamino)-toluidine compounds” (Academia Sinica, priority 2003, dated 2004)
Counter-ions that a name gives are not always drawn.

Key:
[1] = test system: CCRF-CEM human lymphoblastic leukemic cells and its drug-resistant sublines; assay: Growth inhibition of CCRF-CEM cells and drug-resistant sublines (XTT-tetrazolium assay, 72 h); assay type: cell-based; conditions: for IC50 values compared with tested known 9-anilinoacridine compounds: CCRF-CEM and drug-resistant sublines, 72 h, as the trihydrochloride salt or free amine compounds; for cross-resistance with vinblastine or taxol: CCRF-CEM drug-resistant sublines
Experimental: (§1) Cytotoxicity Assays. The effects of the compounds on cell growth were determined in CCRF-CEM human lymphoblastic leukemic cells and its drug-resistant sublines in a 72 h incubation, by XTT-tetrazolium assay, as described by Scudiero et al. (Cancer Res. 1988, 48, 4827-4833). After the addition of phenazine methosulfate-XTT solution at 37° C. for 6 h, absorbance at 450 and 630 nm was detected on a microplate reader (EL 340; Bio-Tek Instruments Inc., Winooski, Vt.). Six to seven concentrations of each compound were used. The IC50 and dose-effect relationships of the compounds for antitumor activity were calculated by a median-effect plot (Chou et al. Adv. Enzyme Regul. 1984, 22, 27-55) using a computer program on an IBM-PC workstation (Chou et al. Dose-Effect Analysis with Microcomputers: Quantitation of ED50, LD50, Synergism, Antagonism, Low-Dose Risk, Receptor-Ligands Binding and Enzyme Kinetics; Biosoft: Cambridge, U.K., 1987).

[2] = test system: human breast tumor MX-1 xenograft; assay: Chemotherapeutic efficacy in nude mice bearing human breast tumor MX-1 xenograft; assay type: in vivo; conditions: i.v., dosages of 10 mg/Kg or higher
Experimental: In vivo assay. Athymic nude mice bearing the nu/nu gene were used for human breast tumor MX-1 xenograft. Outbred Swiss-background mice were obtained from Charies River Breeding Laboratories. Male mice 8 weeks old or older weighing 22 g or more were used for most experiments. Drug was administrated via the tail vein by i.v. injection. Tumor volumes were assessed by measuring length x width x height (or width) by using caliper. Vehicle used was 20 μl DMSO in 180 μl saline. All animal studies were conducted in accordance with the guidelines of the National Institutes of Health Guide for the Care and Use of Animals and the protocol approved by the Memorial Sloan-Kettering Cancer Center's Institutional Animal Care and Use Committee.

human tumor cell lines = assay: Inhibition of human tumor cell growth in culture (XTT-tetrazolium cytotoxicity assay, 72 h); assay type: cell-based; conditions: five human tumor cell lines, 72 h incubation; for IC50 values compared with tested known 9-anilinoacridine antitumor compounds: for at least one cell line
Experimental: as §1, with “all” for “CCRF-CEM”, “tumor” for “lymphoblastic leukemic”, “cells (i.e. colon HT-29, nasopharyngeal carcinoma HONE-1” for “cells”, “BM-1, hepatoma Hepa-G2, breast carcinoma MX-1, gastric carcinoma TSGH, brain tumor DBTRG, oral carcinoma KB, breast carcinoma MCF-7 and MX-1, and T-cell acute lymphocytic leukemia CCRF-CEM),” for “its drug-resistant sublines”

Cc1ccc(N)cc1Nc1c2cccc(C)c2nc2c(C(=O)NCCN(C)C)cccc12 [Compound 2, 3-[9-(4-dimethylaminoethylcarboxamido-5-methyl)acridinylamino)-p-toluidine hydrochloride]
IC50 values compared with tested known 9-anilinoacridine compounds [1]: lower than tested known 9-anilinoacridine compounds
cross-resistance with vinblastine or taxol [1]: not cross-resistant
reducing tumor volume [2]: about 80%
toxicity to the host [2]: very low toxicity
largest difference in IC50 versus one of the tested known compounds (human tumor cell lines): 18 fold
IC50 values compared with tested known 9-anilinoacridine antitumor compounds (human tumor cell lines): lower than those of tested known 9-anilinoacridine antitumor compounds

{3-[4-(2-dimethylamino ethylcarbamoyl)-5-methyl-acridin-9-ylamino]-2-methyl-phenyl}-carbamic acid ethyl ester [Compound 5]
IC50 values compared with tested known 9-anilinoacridine antitumor compounds (human tumor cell lines): lower than those of tested known 9-anilinoacridine antitumor compounds

Cc1ccc(Nc2c3cccc(C)c3nc3c(C(=O)NCCN(C)C)cccc23)cc1N (as salt: HCl) [Compound 3, 5-[9-(4-dimethylaminoethylcarboxamido-5-methyl)acridinylamino)-p-toluidine hydrochloride]
melting point: 245 to 246 °C

Cc1cc(N)cc(Nc2c3cccc(C)c3nc3c(C(=O)NCCN(C)C)cccc23)c1 [Compound 1, 5-[9-(4-dimethylaminoethylcarboxamido-5-methyl)acridinylamino]-m-toluidine hydrochloride]
IC50 values compared with tested known 9-anilinoacridine compounds [1]: lower than tested known 9-anilinoacridine compounds
cross-resistance with vinblastine or taxol [1]: not cross-resistant
reducing tumor volume [2]: about 80%
toxicity to the host [2]: very low toxicity
IC50 values compared with tested known 9-anilinoacridine antitumor compounds (human tumor cell lines): lower than those of tested known 9-anilinoacridine antitumor compounds

Cc1ccc(Nc2c3cccc(C)c3nc3c(C(=O)NCCN(C)C)cccc23)cc1N [Compound 3, 5-[9-(4-dimethylaminoethylcarboxamido-5-methyl)acridinylamino)-p-toluidine hydrochloride]
IC50 values compared with tested known 9-anilinoacridine antitumor compounds (human tumor cell lines): lower than those of tested known 9-anilinoacridine antitumor compounds

Cc1cc(N)cc(Nc2c3ccccc3nc3ccccc23)c1 (as salt: HCl) [Compound 10, 5-(9-acridinylamino)-m-toluidine]
melting point: > 280 °C (dec.)

CCOC(=O)Nc1cc(Nc2c3cccc(C)c3nc3c(C(=O)NCCN(C)C)cccc23)ccc1C [Compound 6]
melting point: 131 to 132 °C
IC50 values compared with tested known 9-anilinoacridine antitumor compounds (human tumor cell lines): lower than those of tested known 9-anilinoacridine antitumor compounds
